One assay addresses T1, human CD38 (Homo sapiens, UniProt P28907).
T1 construct: purchased Bio-Techne GmbH AVI2404
T1 sequence (P28907 1-300): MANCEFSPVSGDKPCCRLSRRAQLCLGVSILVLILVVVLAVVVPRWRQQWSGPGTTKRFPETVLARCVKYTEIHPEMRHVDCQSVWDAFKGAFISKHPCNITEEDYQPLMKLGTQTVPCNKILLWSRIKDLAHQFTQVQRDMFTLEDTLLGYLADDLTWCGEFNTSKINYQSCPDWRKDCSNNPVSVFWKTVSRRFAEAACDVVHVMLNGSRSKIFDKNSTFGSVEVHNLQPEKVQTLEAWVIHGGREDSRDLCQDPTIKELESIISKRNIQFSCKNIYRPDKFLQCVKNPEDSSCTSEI
In words: NAD+ cyclase activity assay with human recombinant CD38 protein (ε-NAD fluorescence). The assay is classed as biochemical. Conditions: 1.9 nM human CD38, substrate ε-NAD, 30 min preincubation, fluorescence 300/410 nm. How it is done:
(§1) Example 4: NAD^+ Cydase Activity Assay with Human or Mouse Recombinant CD38 Protein
(§2) The following assay was used to determine the ability of compounds of the invention to inhibit the hydrolysis of NAD^+ by the human or mouse enzyme, CD38.
(§3) Reaction buffer: 40 mM HEPES/NaOH pH 7.5, 250 mM sucrose, 0.01% Tween
(§4) Final concentrations: 0.6 nM mouse CD38 (4947-AC, Bio-Techne GmbH) 1.9 nM human CD38 (AVI2404, Bio-Techne GmbH)
(§5) Substrate: […] Nicotinamide 1,N6-ethenoadenine dinucleotide (&-NAD)
(§6) Read-out: Fluorescence intensity (extinction 300 nm/emission 410 nm)
(§7) Required reaction buffer, required CD38 concentration in reaction buffer and required e-NAD concentration in reaction buffer were prepared. Thereafter, 8 μL of CD38 in reaction buffer was added to High Control and compound concentration wells in 384 well plate (Corning #4514, 384 well, nonbinding surface, low volume, round bottom) and 8 μL of reaction buffer to Low Control. Compound dilutions were transferred via pintool technology that transfers 42.5 nL compound dilutions (12-point dose-response with factor three dilutions in 100% DMSO) well-to-well. Plate was subsequently shaken for 15 s at 1450 rpm and sealed for incubation for 30 min at room temperature. Thereafter, 2 μL of e-NAD in reaction buffer were added with Integra Voyager. After shaking for 15 s at 1450 rpm, plate was sealed, and assay signal were measured continuously with PHERAstar® fluorescence intensity module (extinction 300 nm/emission 410 nm).
(§8) Dose-response curves were constructed using twelve-pointfactor three dilutions in triplicates per plate. High control (full enzyme activity) was set to assay signal of CD38 and e-NAD in presence of vehicle (DMSO) and Low control (full enzyme inhibition) was set to assay signal of e-NAD and vehicle (DMSO) in absence of CD38. For data analysis, fluorescent signal of traces corresponding to each compound concentration and High and Low control were monitored over time. Each run, High Control (full enzyme activity) was fitted to Linear equation via GraphPad Prism to determine CD38 activity from the slope and determine the time interval of linear phase of reaction to account for minor fluctuations. Thereafter, slopes of all compound concentrations were determined via fitting to same linear equation (GraphPad Prism) over the same time interval as determined for High control. […] Unless otherwise stated, fitting of curves were fixed to 100%-inhibition and unlocked for 0%-inhibition.

The target of a further assay is T2, mouse CD38 (Mus musculus, UniProt P56528).
T2 construct: purchased Bio-Techne GmbH 4947-AC
T2 sequence (P56528 1-304): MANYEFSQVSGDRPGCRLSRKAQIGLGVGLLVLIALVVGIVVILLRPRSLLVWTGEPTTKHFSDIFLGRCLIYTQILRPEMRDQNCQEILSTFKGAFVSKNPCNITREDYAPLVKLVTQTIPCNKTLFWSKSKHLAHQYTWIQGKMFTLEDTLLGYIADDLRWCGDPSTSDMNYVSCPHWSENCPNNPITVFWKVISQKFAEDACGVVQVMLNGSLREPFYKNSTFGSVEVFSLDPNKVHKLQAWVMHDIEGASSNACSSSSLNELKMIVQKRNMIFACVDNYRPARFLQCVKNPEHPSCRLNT
In words: NAD+ cyclase activity assay with mouse recombinant CD38 protein (ε-NAD fluorescence). The assay is classed as biochemical. The settings on record: 0.6 nM mouse CD38, substrate ε-NAD, 30 min preincubation, fluorescence 300/410 nm. The procedure:
as §1, §2, §3, §4, §5, §6, §7, §8

Take `O=C(NC1CCC(F)(F)CC1)c1cc(F)c2c(c1)-c1cncn1CCO2` [Compound 73A, N-(4,4-Difluorocyclohexyl)-8-fluoro-5,6-dihydrobenzo[f]imidazo[1,5-d][1,4]oxazepine-10-carboxamide]: the IC50 (usually the concentration needed to halve the response being measured) is < 30 nM at human CD38 and < 1 nM on mouse CD38.
The matching figures for `O=C(N[C@@H]1CCS(=O)(=O)C1)c1ccc2c(c1)-c1cncn1CCO2` [Compound 2A, (R)—N-(1,1-Dioxidotetrahydrothiophen-3-yl)-5,6-dihydrobenzo[f]imidazo[1,5-d][1,4]oxazepine-10-carboxamide]: < 30 nM and 1 to 10 nM.
Consider `O=C(N[C@H]1CC[C@H](CN2CC(F)(F)C2)CC1)c1ccc2c(c1)-c1cncn1CCO2` [Compound 105A, N-((1r,4r)-4-((3,3-Difluoroazetidin-1-yl)methyl)cyclohexyl)-5,6-dihydrobenzo[f]imidazo[1,5-d][1,4]oxazepine-10-carboxamide], for which the IC50 lay within 30 to 100 nM on human CD38 and 1 to 10 nM at mouse CD38.
Take `COCCO[C@H]1CC[C@H](NC(=O)c2cc(F)c3c(c2F)-c2cncn2CCO3)CC1` [Compound 91A, 8,11-Difluoro-N-((1r,4r)-4-(2-methoxyethoxy)cyclohexyl)-5,6-dihydrobenzo[f]imidazo[1,5-d][1,4]oxazepine-10-carboxamide]: the IC50 is 30 to 100 nM at human CD38 and 1 to 10 nM at mouse CD38.
For the molecule `O=C(N[C@H]1CC[C@@H](OCC(F)(F)F)CC1)c1cc(F)c2c(c1)-c1cncn1CCO2` [Compound 156A, 8-Fluoro-N-((1s,4s)-4-(2,2,2-trifluoroethoxy)cyclohexyl)-5,6-dihydrobenzo[f]imidazo[1,5-d][1,4]oxazepine-10-carboxamide], the IC50 at human CD38 fell in the range of 30 to 100 nM; on mouse CD38, 10 to 100 nM.
Regarding `COCCOc1nc2cc(NC(=O)c3ccc4c(c3)-c3cncn3CCO4)ccc2s1` [Compound 45A, N-(2-(2-Methoxyethoxy)benzo[d]thiazol-5-yl)-5,6-dihydrobenzo[f]imidazo[1,5-d][1,4]oxazepine-10-carboxamide], the IC50 at human CD38 was < 30 nM.
In the case of `O=C(NC1CC(F)(F)C1)c1ccc2c(c1)-c1cncn1CCO2` [Compound 84A, N-(3,3-Difluorocyclobutyl)-5,6-dihydrobenzo[f]imidazo[1,5-d][1,4]oxazepine-10-carboxamide], the IC50 was < 30 nM on human CD38 and 1 to 10 nM on mouse CD38.
On to `C[C@@H]1C[C@H](CC(F)(F)F)CC[C@@H]1NC(=O)c1cc(F)c2c(c1)-c1cncn1CCO2` (relative stereo) [Compound 186A, 8-Fluoro-N-(cis-2-methyl-cis-4-(2,2,2-trifluoroethyl)cyclohexyl)-5,6-dihydrobenzo[f]imidazo[1,5-d][1,4]oxazepine-10-carboxamide], for which the half-inhibitory concentration (IC50) at human CD38 lay within 30 to 100 nM.
As to `CC1CC(CC(F)(F)F)CCC1NC(=O)c1cc(F)c2c(c1)-c1cncn1CCO2` (stereo not shown) [Compound 185A, 8-Fluoro-N-(2-methyl-4-(2,2,2-trifluoroethyl)cyclohexyl)-5,6-dihydrobenzo[f]imidazo[1,5-d][1,4]oxazepine-10-carboxamide], the IC50 on human CD38 was < 30 nM.
On to `COCCO[C@H]1CC[C@H](NC(=O)c2cc3c(c(C)c2C)OCCn2cncc2-3)CC1` [Compound 179A, N-((1r,4r)-4-(2-Methoxyethoxy)cyclohexyl)-8,9-dimethyl-5,6-dihydrobenzo[f]imidazo[1,5-d][1,4]oxazepine-10-carboxamide], for which the IC50 on human CD38 lay in the range of 100 to 1000 nM.
`Cc1c(C(=O)NC2CCC(F)(F)CC2)cc2c(c1C)OCCn1cncc1-2` [Compound 180A, N-(4,4-Difluorocyclohexyl)-8,9-dimethyl-5,6-dihydrobenzo[f]imidazo[1,5-d][1,4]oxazepine-10-carboxamide]: the IC50 at human CD38 was in the range of 100 to 1000 nM.
Regarding `O=C(N[C@@H]1CCCOC1)c1ccc2c(n1)-n1cncc1CCO2` [Compound 42A, (R)—N-(tetrahydro-2H-pyran-3-yl)-6,7-dihydroimidazo[1,5-d]pyrido[3,2-b][1,4]oxazepine-2-carboxamide], the IC50 on mouse CD38 lay in the range of 10 to 100 nM.
Take `O=C(NC1CCCC(C(F)(F)F)C1)c1cc(Cl)c2c(c1)-c1cncn1CCO2` (stereo not shown) [Compound 181A, 8-Chloro-N-(3-(trifluoromethyl)cyclohexyl)-5,6-dihydrobenzo[f]imidazo[1,5-d][1,4]oxazepine-10-carboxamide]: the IC50 at human CD38 is < 30 nM.
Same read-out and setting: the figure for `Cc1c(C(=O)NC2CCC(OCC(F)(F)F)CC2)cc2c(c1C)OCCn1cncc1-2` (stereo not shown) [Compound 189A, 8,9-Dimethyl-N-(4-(2,2,2-trifluoroethoxy)cyclohexyl)-5,6-dihydrobenzo[f]imidazo[1,5-d][1,4]oxazepine-10-carboxamide] is 100 to 1000 nM.
Turning to `O=C(N[C@@H]1CCCOC1)c1ccc2c(n1)-n1cnc(c1)CCO2` [Compound 43A, (Z)—N—((R)-Tetrahydro-2H-pyran-3-yl)-5,6-dihydro-1,4-(metheno)pyrido[3,2-b][1,4,6]oxadiazonine-10-carboxamide], the IC50 at human CD38 is > 1000 nM.
`O=C(N[C@H]1CC[C@@H](OCC(F)(F)F)CC1)c1cc2c(c(F)c1F)OCCn1cncc1-2` [Compound 188A, 8,9-Difluoro-N-((1s,4s)-4-(2,2,2-trifluoroethoxy)cyclohexyl)-5,6-dihydrobenzo[f]imidazo[1,5-d][1,4]oxazepine-10-carboxamide]: the IC50 on human CD38 lay within 100 to 1000 nM.
As to `O=C(N[C@H]1CC[C@H](OCC(F)(F)F)CC1)c1cc2c(c(F)c1F)OCCn1cncc1-2` [Compound 187A, 8,9-Difluoro-N-((1r,4r)-4-(2,2,2-trifluoroethoxy)cyclohexyl)-5,6-dihydrobenzo[f]imidazo[1,5-d][1,4]oxazepine-10-carboxamide], the IC50 on human CD38 is < 30 nM.
With `Cc1cc(CC(F)(F)F)ccc1NC(=O)c1cc(Cl)c2c(c1)-c1cncn1CCO2` [Compound 182A, 8-Chloro-N-(2-methyl-4-(2,2,2-trifluoroethyl)phenyl)-5,6-dihydrobenzo[f]imidazo[1,5-d][1,4]oxazepine-10-carboxamide], the IC50 at human CD38 was 30 to 100 nM.
For the molecule `COc1nc2cc(NC(=O)c3ccc4c(c3)-c3cncn3CCO4)ccc2s1` [Compound 44A, N-(2-Methoxybenzo[d]thiazol-5-yl)-5,6-dihydrobenzo[f]imidazo[1,5-d][1,4]oxazepine-10-carboxamide], the IC50 on human CD38 is < 30 nM.
`CC1CC(CC(F)(F)F)CCC1NC(=O)c1cc(Cl)c2c(c1)-c1cncn1CCO2` (stereo not shown) [Compound 183A, 8-Chloro-N-(2-methyl-4-(2,2,2-trifluoroethyl)cyclohexyl)-5,6-dihydrobenzo[f]imidazo[1,5-d][1,4]oxazepine-10-carboxamide]: at human CD38, the IC50 is < 30 nM.
As for `COCCO[C@H]1CC[C@H](NC(=O)c2cc3c(c(Cl)c2C)OCCn2cncc2-3)CC1` [Compound 191A, 8-Chloro-N-((1r,4r)-4-(2-methoxyethoxy)cyclohexyl)-9-methyl-5,6-dihydrobenzo[f]imidazo[1,5-d][1,4]oxazepine-10-carboxamide], at human CD38, the IC50 is 30 to 100 nM.
Take `C[C@@H]1C[C@H](CC(F)(F)F)CC[C@@H]1NC(=O)c1cc(Cl)c2c(c1)-c1cncn1CCO2` (relative stereo) [Compound 184A, 8-Chloro-N-(cis-2-methyl-cis-4-(2,2,2-trifluoroethyl)cyclohexyl)-5,6-dihydrobenzo[f]imidazo[1,5-d][1,4]oxazepine-10-carboxamide]: the IC50 at human CD38 fell in the range of 100 to 1000 nM.

The values are drawn from patent US20260138990A1, “TRICYCLIC FUSED IMIDAZOLE COMPOUNDS AS CD38 MODULATORS AND USES THEREOF” (AEOVIAN PHARMACEUTICALS, INC., priority 2023, published 2026).
